Measurements published in ChEMBL document CHEMBL3991947, “D-serine transporter inhibitors as pharmaceutical compositions for the treatment of central nervous system disorders” (2014).

These molecules were tested against T1, Amino acid transporter (Rattus norvegicus) (UniProt Q9Z1J7) (assay: Inhibition of ASCT2 mediated [3H]-D-serine uptake in rat hippocampal astrocytes at 1 mM after 5 mins by beta counting analysis).
T1 sequence (whole entry): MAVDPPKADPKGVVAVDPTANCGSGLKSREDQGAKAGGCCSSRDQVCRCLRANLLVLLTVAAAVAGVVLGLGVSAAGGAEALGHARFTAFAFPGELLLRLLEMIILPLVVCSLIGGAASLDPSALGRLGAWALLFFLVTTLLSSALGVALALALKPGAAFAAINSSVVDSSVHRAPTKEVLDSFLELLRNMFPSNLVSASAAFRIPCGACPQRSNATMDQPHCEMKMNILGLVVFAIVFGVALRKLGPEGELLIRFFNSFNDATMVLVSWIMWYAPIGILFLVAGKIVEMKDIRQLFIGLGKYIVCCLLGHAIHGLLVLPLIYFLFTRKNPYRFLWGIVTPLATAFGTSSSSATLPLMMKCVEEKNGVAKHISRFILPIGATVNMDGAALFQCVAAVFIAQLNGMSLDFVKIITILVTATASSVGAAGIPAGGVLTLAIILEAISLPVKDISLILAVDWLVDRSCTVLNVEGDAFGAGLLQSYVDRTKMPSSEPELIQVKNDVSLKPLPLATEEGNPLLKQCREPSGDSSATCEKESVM
Assay type: cell-based

Row | Compound | inhibition [%]
1 | N[C@H](C(=O)O)c1ccc(C(F)(F)F)cc1 | > 25
2 | NC1(C(=O)O)CCCC1 | > 25
3 | O=C(O)/C(=C/c1c(C(=O)O)[nH]c2cc(Cl)cc(Cl)c12)c1ccccc1 | > 25
4 | N[C@@H](CCO)C(=O)O | > 25
5 | CC(C)(C)c1ccc(C[C@H]2CNC(C(=O)O)C2)cc1 (single isomer, unassigned) | > 25
6 | Cc1ccccc1C[C@H]1CNC(C(=O)O)C1 (single isomer, unassigned) | > 25
7 | O=C(O)C1Cc2c([nH]c3ccccc23)CN1 (stereo unspecified) | > 25
8 | NC(C(=O)O)c1ccc2c(c1)OCCO2 (stereo unspecified) | > 25
9 | N[C@@H](CCc1ccccc1)C(=O)O | > 25
10 | Cc1ccccc1[C@H](N)C(=O)O | > 25
11 | O=C(O)C1C[C@@H](Cc2ccccc2Br)CN1 (single isomer, unassigned) | > 25
12 | NC(CCC(=O)Nc1ccccc1)C(=O)O (stereo unspecified) | > 25
13 | NC(C(=O)O)c1ccccc1Cl (stereo unspecified) | > 25
14 | NC(C(=O)O)c1cccc(F)c1 (stereo unspecified) | > 25
15 | O=C(O)[C@H]1NCC[C@@H]1c1ccccc1 | > 25
16 | N[C@@H](CC(=O)OCc1ccccc1)C(=O)O | > 25
17 | NC(C(=O)O)c1cccc(Br)c1 (stereo unspecified) | > 25
18 | COCC(N)C(=O)O (racemic) | > 25
19 | Cc1ccc(SC[C@H](N)C(=O)O)cc1 | > 25
20 | N[C@@H](CC1CC1)C(=O)O | > 25
21 | N[C@H](C(=O)O)c1ccc(O)c(C(=O)O)c1 | > 25
22 | N[C@H]1CCOC1=O | > 25
23 | Nc1ccccc1C(=O)C[C@@H](N)C(=O)O | > 25
24 | NC(C(=O)O)c1ccc(O)c(O)c1 (stereo unspecified) | > 25
25 | CNC[C@H](N)C(=O)O | > 25
26 | NC(C(=O)O)c1ccc(F)c(F)c1 (stereo unspecified) | > 25

Row | Compound | inhibition [%]
27 | NC(CC(=O)c1ccccc1)C(=O)O (stereo unspecified) | > 25
28 | N[C@@H](Cn1oc(=O)[nH]c1=O)C(=O)O | > 25
29 | O=C(O)C1C[C@@H](Cc2cccc(C(F)(F)F)c2)CN1 (single isomer, unassigned) | > 25
30 | O=C(O)[C@@H]1C[C@@H](Cc2ccco2)CN1 | > 25
31 | O=C(O)[C@@H]1C[C@@H](Cc2ccc(C(F)(F)F)cc2)CN1 | > 25
32 | O=C(O)[C@@H]1C=CCN1 | > 25
33 | O=C(O)[C@@H]1CN1 | > 25
34 | O=C(O)[C@@H]1C[C@H](Cc2cccc(Cl)c2)CN1 | > 25
35 | N[C@@H](CCS)C(=O)O | > 25
36 | O=C(O)C1C[C@@H](Cc2ccc([N+](=O)[O-])cc2)CN1 (single isomer, unassigned) | > 25
37 | NC1(C(=O)O)CC1 | > 25
38 | NC(CC(=O)Nc1ccccc1)C(=O)O (stereo unspecified) | > 25
39 | NC(C(=O)O)c1ccc(F)c(Cl)c1 (stereo unspecified) | > 25
40 | N[C@@H](Cc1csc2ccccc12)C(=O)O | > 25
41 | CC(C)[C@H](N)C(=O)O | > 25
42 | N[C@@H](Cc1c[nH]c2ccc(F)cc12)C(=O)O | > 25
43 | N[C@H](C(=O)O)c1cccc(O)c1 | > 25
44 | N[C@H]1CCSC1=O | > 25
45 | N[C@@H](CS)C(=O)O | > 25
46 | Cc1ccc(C(N)C(=O)O)cc1Cl (stereo unspecified) | > 25
47 | C[C@H](O)[C@H](N)C(=O)O | > 25
48 | NC(C(=O)O)c1ccc(CO)c(O)c1 (stereo unspecified) | > 25
49 | O=C(O)[C@@H]1C[C@@H](Cc2ccccc2C(F)(F)F)CN1 | > 25
50 | O=C(O)[C@@H]1C[C@@H](F)CN1 | > 25
51 | COC(=O)CC[C@H](N)C(=O)O | > 25
52 | O=C(O)[C@@H]1NCC[C@H]1Cc1ccc(F)cc1 | > 25

Row | Compound | inhibition [%]
53 | N[C@@H](Cc1cccs1)C(=O)O | > 25
54 | NC(C(=O)O)c1ccccc1O (stereo unspecified) | > 25
55 | CCC[C@H](N)C(=O)O | > 25
56 | [N-]=[N+]=NCC[C@H](N)C(=O)O | > 25
57 | O=C(O)C1C[C@@H](Cc2ccc(F)c(F)c2)CN1 (single isomer, unassigned) | > 25
58 | Cc1cc(C(N)C(=O)O)ccc1F (stereo unspecified) | > 25
59 | COC[C@H](N)C(=O)O | > 25
60 | N[C@H](C(=O)O)c1cccc2ccccc12 | > 25
61 | O=C(O)C1C[C@@H](Cc2ccccc2Cl)CN1 (single isomer, unassigned) | > 25
62 | C[C@@H](N)C(=O)O | > 25
63 | O=C(O)[C@H]1NCCC1c1ccccc1 (stereo partly specified) | > 25
64 | N[C@H](C(=O)O)c1ccsc1 | > 25
65 | [N-]=[N+]=CC(=O)CC[C@H](N)C(=O)O | > 25
66 | NC(C(=O)O)c1ccc([N+](=O)[O-])cc1 (stereo unspecified) | > 25
67 | O=C(O)C1C[C@@H](Cc2ccc(Cl)cc2)CN1 (single isomer, unassigned) | > 25
68 | CNC(C(=O)O)c1ccc(OC)cc1 (stereo unspecified) | > 25
69 | CC[C@H](N)C(=O)O | > 25
70 | O=C(O)C1C[C@@H](Cc2ccc(Cl)cc2Cl)CN1 (single isomer, unassigned) | > 25
71 | N[C@@H](CC1CCCC1)C(=O)O | > 25
72 | O=C(O)[C@@H]1Cc2ccccc2CN1 | > 25
73 | NC(C(=O)O)c1ccc2c(c1)OCO2 (stereo unspecified) | > 25
74 | CC(O)[C@H](C)[C@H](N)C(=O)O (stereo partly specified) | > 25
75 | O=C(O)[C@H]1C[C@@H](F)CN1 | > 25
76 | COc1ccc(C(N)C(=O)O)cc1 (stereo unspecified) | > 25
77 | N[C@@H](Cc1ccc(O)c(O)c1)C(=O)O | > 25
78 | CCOC(=O)CC(N)C(=O)O (stereo unspecified) | > 25

Row | Compound | inhibition [%]
79 | C[C@H](O)[C@@H](N)C(=O)O | > 25
80 | O=C(Nc1cccc2ccccc12)[C@@H]1C[C@@H](O)CN1 | > 25
81 | NC(C(=O)O)c1nnn[nH]1 (stereo unspecified) | > 25
82 | O=C(O)[C@@H]1C[C@@H](Cc2cccc(Cl)c2)CN1 | > 25
83 | C[C@@H](O)[C@H](N)C(=O)O | > 25
84 | N[C@@H](Cc1c[nH]c2ccccc12)C(=O)O | > 25
85 | O=C(O)C1C[C@@H](Cc2ccc(Br)cc2)CN1 (single isomer, unassigned) | > 25
86 | NC(C(=O)O)C(O)c1cccnc1 (racemic) | > 25
87 | CSC[C@H](N)C(=O)O | > 25
88 | CCSC[C@H](N)C(=O)O | > 25
89 | O=C(O)C1C[C@@H](Cc2ccc(I)cc2)CN1 (single isomer, unassigned) | > 25
90 | Nc1ccccc1C(=O)C[C@H](N)C(=O)O | > 25
91 | NC(C(=O)O)C1CC2C=CC1C2 (stereo unspecified) | > 25
92 | O=C(O)C1C[C@@H](Cc2ccccc2F)CN1 (single isomer, unassigned) | > 25
93 | C#CCC[C@H](N)C(=O)O | > 25
94 | N[C@@H](CCC(=O)Nc1cccc2ccccc12)C(=O)O | > 25
95 | NC(C(=O)O)c1cc(O)cc(O)c1 (stereo unspecified) | > 25
96 | O=C(O)[C@@H]1C[C@H](Cc2ccccc2)CN1 | > 25
97 | O=C(O)C1C[C@@H](Cc2cccc3ccccc23)CN1 (single isomer, unassigned) | > 25
98 | NC(Cc1c[nH]c2cccc(F)c12)C(=O)O (stereo unspecified) | > 25
99 | O=C(O)[C@@H]1NCC[C@H]1Cc1ccccc1 | > 25
100 | Cc1ccc(C[C@H]2CNC(C(=O)O)C2)cc1 (single isomer, unassigned) | > 25
101 | C=CCC(N)C(=O)O (stereo unspecified) | > 25
